Key:
[1] = molecular target: T1, Metabotropic glutamate receptor 5 (Rattus norvegicus, UniProt P31424); assay: Displacement of [3H]-M-MPEP from rat cerebrocortical mGluR5 receptor
Liver microsome [2] = assay: Intrinsic clearance in human liver microsomes measured per gram of tissue at 2.5 uM; format: ADME
Liver microsome [3] = assay: Intrinsic clearance in Wistar rat liver microsomes measured per gram of tissue at 2.5 uM; format: ADME
[4] = molecular target: T1, Metabotropic glutamate receptor 5; assay: Negative allosteric modulation of mGlu5 receptor in primary E17 rat embryo neuron assessed as ca2+ level by fluo-4/AM assay

T1 sequence (P31424 whole entry): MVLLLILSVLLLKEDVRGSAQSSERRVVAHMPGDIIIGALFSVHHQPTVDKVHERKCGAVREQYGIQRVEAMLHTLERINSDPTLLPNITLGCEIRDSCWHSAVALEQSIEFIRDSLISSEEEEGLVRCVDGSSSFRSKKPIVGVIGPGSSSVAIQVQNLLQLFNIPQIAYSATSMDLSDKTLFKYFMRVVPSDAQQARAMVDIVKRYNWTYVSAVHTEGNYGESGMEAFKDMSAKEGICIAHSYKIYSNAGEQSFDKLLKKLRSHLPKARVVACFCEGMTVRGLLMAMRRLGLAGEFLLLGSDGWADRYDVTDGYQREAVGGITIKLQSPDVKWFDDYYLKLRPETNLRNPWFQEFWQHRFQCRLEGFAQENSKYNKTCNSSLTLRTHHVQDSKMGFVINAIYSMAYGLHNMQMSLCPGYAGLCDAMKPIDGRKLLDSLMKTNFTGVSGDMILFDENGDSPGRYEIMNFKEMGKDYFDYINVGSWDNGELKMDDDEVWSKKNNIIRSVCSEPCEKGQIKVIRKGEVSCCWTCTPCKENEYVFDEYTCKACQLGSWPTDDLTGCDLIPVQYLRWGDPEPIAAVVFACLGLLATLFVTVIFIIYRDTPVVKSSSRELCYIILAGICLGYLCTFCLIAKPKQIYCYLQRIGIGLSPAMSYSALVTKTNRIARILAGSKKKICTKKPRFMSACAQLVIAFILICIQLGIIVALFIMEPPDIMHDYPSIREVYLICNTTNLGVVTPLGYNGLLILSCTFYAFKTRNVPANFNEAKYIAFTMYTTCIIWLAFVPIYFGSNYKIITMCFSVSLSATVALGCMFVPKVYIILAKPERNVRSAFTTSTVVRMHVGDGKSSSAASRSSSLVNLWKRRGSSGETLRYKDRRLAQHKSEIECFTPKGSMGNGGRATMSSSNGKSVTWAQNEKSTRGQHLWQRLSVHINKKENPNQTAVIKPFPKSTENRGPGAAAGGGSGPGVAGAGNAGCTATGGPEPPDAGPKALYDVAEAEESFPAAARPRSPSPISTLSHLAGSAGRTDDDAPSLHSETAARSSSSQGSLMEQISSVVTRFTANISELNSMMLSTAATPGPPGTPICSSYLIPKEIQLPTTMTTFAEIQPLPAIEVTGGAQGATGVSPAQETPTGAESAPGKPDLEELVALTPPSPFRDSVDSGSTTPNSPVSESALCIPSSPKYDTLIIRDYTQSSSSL

SMILES	Ki [1]	CLH (Liver microsome [2])	CLH (Liver microsome [3])	IC50 [4]
N#Cc1cccc(S(=O)(=O)c2sc3ncc(N)cc3c2-c2ccc(F)cc2)c1	8.8 nM	1.3 mL/min/g	3.8 mL/min/g	
O=S(=O)(c1ccc(F)cc1)c1sc2ncccc2c1-c1ccc(Cl)cc1	15.6 nM			
N#Cc1cc(F)cc(S(=O)(=O)c2sc3nc(F)ccc3c2-c2ccc(F)cc2)c1	2.8 nM	3.5 mL/min/g	2 mL/min/g	14 nM
O=S(=O)(c1ccc(Cl)cc1)c1sc2nc(F)ccc2c1-c1ccc(Cl)cc1	26 nM	0.1 mL/min/g	3.8 mL/min/g	172 nM
O=S(=O)(c1ccc(Cl)cc1)c1sc2nccc(F)c2c1-c1ccc(Cl)cc1	214 nM	3.6 mL/min/g	12.1 mL/min/g	
Cc1ccc(S(=O)(=O)c2sc3ncccc3c2-c2ccc(Cl)cc2)cc1C	3.3 nM			
N#Cc1cccc(S(=O)(=O)c2sc3ncc(N)cc3c2-c2cccc(F)c2)c1	4.2 nM	0.01 mL/min/g	0.01 mL/min/g	
O=S(=O)(c1ccc(Cl)cc1)c1sc2nc(O)ccc2c1-c1ccc(Cl)cc1	60 nM	0.04 mL/min/g	0.9 mL/min/g	338 nM
O=S(=O)(c1ccc(Cl)cc1)c1sc2ncccc2c1-c1ccccc1Cl	64 nM	2.8 mL/min/g	3.7 mL/min/g	172 nM
Cc1cccc(S(=O)(=O)c2sc3ncccc3c2-c2ccc(Cl)cc2)c1	9.3 nM			
N#Cc1cccc(S(=O)(=O)c2sc3nc(O)ccc3c2-c2ccc(Cl)cc2)c1	39 nM	0.4 mL/min/g	1.1 mL/min/g	46 nM
N#Cc1cccc(S(=O)(=O)c2sc3ncc(N)cc3c2-c2cccc(Cl)c2)c1	14.3 nM	0.01 mL/min/g	0.01 mL/min/g	
CN(C)c1ccc(S(=O)(=O)c2sc3ncccc3c2-c2ccc(Cl)cc2)cc1	52 nM			
Cc1cccc(-c2c(S(=O)(=O)c3cccc(C#N)c3)sc3ncccc23)c1	14.2 nM	3.3 mL/min/g	17.7 mL/min/g	44 nM
COc1cccc(S(=O)(=O)c2sc3ncccc3c2-c2ccc(Cl)cc2)c1	9.5 nM			
Cc1ccc(-c2c(S(=O)(=O)c3ccc(Cl)cc3)sc3ncccc23)cc1	21 nM	3.9 mL/min/g	15.7 mL/min/g	111 nM
O=S(=O)(c1ccc(Cl)cc1)c1sc2ncccc2c1-c1cnccc1F	61 nM	2.6 mL/min/g	10.5 mL/min/g	
N#Cc1cc(F)cc(S(=O)(=O)c2sc3ncc(N)cc3c2-c2c(F)cncc2F)c1	19 nM	0.4 mL/min/g	0.8 mL/min/g	

SMILES	Ki [1]	CLH (Liver microsome [2])	CLH (Liver microsome [3])	IC50 [4]
CS(=O)(=O)Nc1cnc2sc(S(=O)(=O)c3ccc(Cl)cc3)c(-c3ccc(Cl)cc3)c2c1	166 nM	0.4 mL/min/g	1.1 mL/min/g	
N#Cc1cc(F)cc(S(=O)(=O)c2sc3ncccc3c2-c2cccc(Cl)c2)c1	8.9 nM	2.6 mL/min/g	2 mL/min/g	11 nM
CC(C)c1ccc(S(=O)(=O)c2sc3ncccc3c2-c2ccc(Cl)cc2)cc1	66 nM			
N#Cc1cccc(S(=O)(=O)c2sc3ncccc3c2-c2ccccc2Cl)c1	3.5 nM	3.2 mL/min/g	11.2 mL/min/g	
O=S(=O)(c1ccc(Cl)cc1)c1sc2ncccc2c1-c1ccc(F)cc1F	27 nM	3.3 mL/min/g	11.1 mL/min/g	
N#Cc1cc(F)cc(S(=O)(=O)c2sc3ncccc3c2-c2ccc(F)cc2)c1	2.4 nM	2.1 mL/min/g	2.1 mL/min/g	10.6 nM
O=S(=O)(c1cc(F)cc(F)c1)c1sc2ncccc2c1-c1ccc(Cl)cc1	36 nM			
O=S(=O)(c1cccc(C(F)(F)F)c1)c1sc2ncccc2c1-c1ccc(Cl)cc1	54 nM			
N#Cc1ccc(S(=O)(=O)c2sc3ncccc3c2-c2ccc(Cl)cc2)cc1	36 nM			
O=S(=O)(c1ccc(Cl)cc1)c1sc2ncccc2c1-c1ccc(F)cc1	22 nM	3.4 mL/min/g	13.6 mL/min/g	92 nM
N#Cc1cc(F)cc(S(=O)(=O)c2sc3ncc(N)cc3c2-c2ccc(F)cc2)c1	2.8 nM	0.8 mL/min/g	1.2 mL/min/g	6.4 nM
N#Cc1cccc(S(=O)(=O)c2sc3ncccc3c2-c2ccc(F)cc2)c1	4.5 nM	2.1 mL/min/g	9.6 mL/min/g	
N#Cc1cc(F)cc(S(=O)(=O)c2sc3ncc(N)cc3c2-c2ccncc2F)c1	44 nM	0.3 mL/min/g	0.5 mL/min/g	44 nM
O=S(=O)(c1ccc(Cl)cc1)c1sc2ncccc2c1-c1cccc(F)c1	38 nM	2.3 mL/min/g	4.1 mL/min/g	123 nM
Nc1cnc2sc(S(=O)(=O)c3ccc(Cl)cc3)c(-c3cccc(F)c3)c2c1	37 nM	1.7 mL/min/g	1.8 mL/min/g	127 nM
Nc1ccnc2sc(S(=O)(=O)c3ccc(Cl)cc3)c(-c3ccc(Cl)cc3)c12	14.8 nM	2.9 mL/min/g	10.1 mL/min/g	
N#Cc1cc(F)cc(S(=O)(=O)c2sc3ncc(N)cc3c2-c2cc(F)cc(F)c2)c1	2.4 nM	0.8 mL/min/g	1.04 mL/min/g	6.1 nM
O=S(=O)(c1ccc(C(F)(F)F)cc1)c1sc2ncccc2c1-c1ccc(Cl)cc1	272 nM			
